In patent publication US20250186442A1, “Obicetrapib and Ezetimibe Combination Treatment and Fixed Dose Pharmaceutical Compositions” (NewAmsterdam Pharma B.V., priority 2022, published 2025):

How the values were obtained:
Assay type in all cases: physicochemical
[1] = Kinetic solubility in FaSSIF (pH 6.5) at 37° C.; conditions: FaSSIF pH 6.5, 37° C., as obicetrapib free acid
Source text: (§1) The amorphous form has a higher kinetic solubility and dissolution rate than the crystalline form (and by extension obicetrapib itself). Both crystalline and amorphous obicetrapib hemicalcium kinetic solubility determinations were made in biorelevant media at different pHs, namely at about 5.0 (FeSSIF conditions) and at pH of about 6.5 (FaSSIF) conditions as set forth in Example 11.28.
The concentrations in Table X are those of obicetrapib (i.e., the free acid).
(§2) The solids were magnetically stirred at 600 RPM in a shaker bath and samples were drawn with a 1.0 ml syringe at T=15 mins, 30 mins, 60 mins, 90 mins and 120 mins. The solubility was measured using HPLC method provided by the client. The compound was added to 4.0 ml glass vials at approximately 20.0 mg/ml. Samples were agitated with a vortex mixer for about 5 minutes to ensure the presence of undissolved excess powder. The sample collected at each time point was centrifuged at 1200 RPM, filtered with 0.45 μm Polytetrafluoroethylene (PTFE) filters and diluted with methanol before HPLC analysis. In order to minimize the effect of potential analyte adsorption on the filter, the initial 0.5 mL of supernatant passing through the filter was discarded prior to collecting sample for HPLC analysis.

[2] = Stability study at 70° C./75% RH (XRPD physical stability, HPLC purity); conditions: 70° C. at 75% relative humidity
Source text: FIG. 54 is a plot of x-ray powder diffraction pattern taken of crystalline obicetrapib hemicalcium, and FIG. 55 is a plot of x-ray powder diffraction patterns taken of crystalline obicetrapib hemicalcium under stress conditions. In FIG. 55, there are four diffraction patterns shown based on stability study set forth in Example 11.27. Pattern 1 is an x-ray powder diffraction pattern of a sample of amorphous obicetrapib hemicalcium. Pattern 2 is the x-ray powder diffraction pattern of a sample of crystalline obicetrapib hemicalcium. In pattern 3, the sample of crystalline obicetrapib hemicalcium was exposed to 70° C. at 75% relative humidity for one day. […] Pattern 1 was taken before the sample was placed on stability.
Stability study was conducted on crystalline and amorphous forms of obicetrapib at 70° C./75% relative humidity (RH). The solids were placed into a 4.0 ml glass vial without caps (open condition) and stored at 70° C./75% RH. Samples were pulled out of the stability chamber at day 1 (24 hours) and at 7-day time point. The solids were analyzed by XRPD for physical stability and by HPLC for chemical purity. The sample collected at each time point was dissolved in methanol before HPLC analysis. In order to minimize the effect of potential analyte adsorption on the filter, the initial 0.5 mL of supernatant passing through the filter was discarded prior to collecting sample for HPLC analysis. Purity for each sample was determined based on peak area percent and compared to the sample at T=0.

[3] = Kinetic solubility in FeSSIF (pH 5.0) at 37° C.; conditions: FeSSIF pH 5.0, 37° C., as obicetrapib free acid
Source text: as §1
The concentrations in Table W are those of obicetrapib (i.e., the free acid).
as §2

Q: Which “Concentration in Solution” value ([1]; 15 mins) does the source give for `CCOC(=O)N1c2ccc(C(F)(F)F)cc2[C@@H](N(Cc2cc(C(F)(F)F)cc(C(F)(F)F)c2)c2ncc(OCCCC(=O)[O-])cn2)C[C@H]1CC.CCOC(=O)N1c2ccc(C(F)(F)F)cc2[C@@H](N(Cc2cc(C(F)(F)F)cc(C(F)(F)F)c2)c2ncc(OCCCC(=O)[O-])cn2)C[C@H]1CC.[Ca+2]` [Crystalline obicetrapib hemicalcium, reference compound] here?
A: The value was 30 µg/mL.

Q: What about the “Concentration in Solution” value ([1]; 30 mins) of the same molecule?
A: The value was 48 µg/mL.

Q: What about the “Concentration in Solution” value ([1]; 60 mins) of the same molecule?
A: The value was 84 µg/mL.

Q: What about the “Concentration in Solution” value ([1]; 90 mins) of the same molecule?
A: Its value is 107 µg/mL.

Q: And the “Concentration in Solution” value ([1]; 120 mins)?
A: The value was 144 µg/mL.

Q: And the “physical stability by x-ray powder diffraction” value ([2]; 7 days)?
A: The value was “the result remains the same”.

Q: And the “physical stability by x-ray powder diffraction” value ([2]; one day)?
A: The value was “near total loss of crystallinity”.

Q: And the “Concentration in Solution” value ([3]; 15 mins)?
A: The value was 85 µg/mL.

Q: What about the “Concentration in Solution” value ([3]; 30 mins) of the same molecule?
A: The value was 169 µg/mL.

Q: What about the “Concentration in Solution” value ([3]; 60 mins) of the same molecule?
A: The value was 369 µg/mL.

Q: And the “Concentration in Solution” value ([3]; 90 mins)?
A: Its value is 453 µg/mL.

Q: What about the “Concentration in Solution” value ([3]; 120 mins) of the same molecule?
A: The value was 529 µg/mL.
